Assay results taken from ChEMBL document CHEMBL4190322, “Structure-based development of novel triazoles and related thiazolotriazoles as anticancer agents and Cdc25A/B phosphatase inhibitors. Synthesis, in vitro biological evaluation, molecular docking and in silico ADME-T studies” (Eur J Med Chem, 2017).
Activity calls are given as the source filed them. No cut-off for these calls is given here.

Legend:
CCRF-CEM = experiment: Growth inhibition of human CCRF-CEM cells at 10 uM after 48 hrs by SRB assay relative to control; assay type: functional; conditions: read-out: GI
HL-60 = experiment: Growth inhibition of human HL60 cells at 10 uM after 48 hrs by SRB assay relative to control; assay type: functional
SK-OV-3 = experiment: Growth inhibition of human SKOV3 cells at 10 uM after 48 hrs by SRB assay relative to control; assay type: functional; conditions: SK-OV-3, 48 h, read-out: GI
SK-MEL-5 = experiment: Growth inhibition of human SK-MEL-5 cells at 10 uM after 48 hrs by SRB assay relative to control; assay type: functional; conditions: SK-MEL-5, 48 h, read-out: GI
NCI-H226 = experiment: Growth inhibition of human NCI-H226 cells at 10 uM after 48 hrs by SRB assay relative to control; assay type: functional; conditions: NCI-H226, 48 h, read-out: GI
OVCAR-4 = experiment: Growth inhibition of human OVCAR4 cells at 10 uM after 48 hrs by SRB assay relative to control; assay type: functional; conditions: OVCAR-4, 48 h, read-out: GI
LOX IMVI = experiment: Growth inhibition of human LOXIMVI cells at 10 uM after 48 hrs by SRB assay relative to control; assay type: functional; conditions: read-out: GI
NCI-H522 = experiment: Growth inhibition of human NCI-H522 cells at 10 uM after 48 hrs by SRB assay relative to control; assay type: functional; conditions: NCI-H522, 48 h, read-out: GI
SK-MEL-2 = experiment: Growth inhibition of human SK-MEL-2 cells at 10 uM after 48 hrs by SRB assay relative to control; assay type: functional; conditions: SK-MEL-2, 48 h, read-out: GI
[1] = target: T1, M-phase inducer phosphatase 1 (Homo sapiens, UniProt P30304); experiment: Inhibition of human CDC25A using OMFP as substrate after 15 mins by fluorescence assay
T1 sequence (P30304 whole entry): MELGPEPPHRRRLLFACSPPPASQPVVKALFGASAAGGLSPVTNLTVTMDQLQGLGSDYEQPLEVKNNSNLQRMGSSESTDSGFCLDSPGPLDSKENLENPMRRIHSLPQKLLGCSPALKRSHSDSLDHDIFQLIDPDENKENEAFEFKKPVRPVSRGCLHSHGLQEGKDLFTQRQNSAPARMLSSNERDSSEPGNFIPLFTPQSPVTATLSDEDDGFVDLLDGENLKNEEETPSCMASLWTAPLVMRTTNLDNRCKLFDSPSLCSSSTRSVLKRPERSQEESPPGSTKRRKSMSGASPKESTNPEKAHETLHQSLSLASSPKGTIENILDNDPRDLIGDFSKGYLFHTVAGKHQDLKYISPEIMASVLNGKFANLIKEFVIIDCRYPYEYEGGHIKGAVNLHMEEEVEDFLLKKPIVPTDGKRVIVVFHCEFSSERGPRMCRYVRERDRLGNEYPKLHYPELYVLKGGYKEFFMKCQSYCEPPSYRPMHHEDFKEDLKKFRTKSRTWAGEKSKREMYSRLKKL

A498 = experiment: Growth inhibition of human A498 cells at 10 uM after 48 hrs by SRB assay relative to control; assay type: functional; conditions: A498, 48 h, read-out: GI
MOLT-4 = experiment: Growth inhibition of human MOLT4 cells at 10 uM after 48 hrs by SRB assay relative to control; assay type: functional; conditions: MOLT-4, 48 h, read-out: GI
UACC-257 = experiment: Growth inhibition of human UACC257 cells at 10 uM after 48 hrs by SRB assay relative to control; assay type: functional
Hs-578T = experiment: Growth inhibition of human Hs 578T cells at 10 uM after 48 hrs by SRB assay relative to control; assay type: functional; conditions: read-out: GI
SR = experiment: Growth inhibition of human SR cells at 10 uM after 48 hrs by SRB assay relative to control; assay type: functional; conditions: read-out: GI
SNB-19 = experiment: Growth inhibition of human SNB19 cells at 10 uM after 48 hrs by SRB assay relative to control; assay type: functional; conditions: SNB-19, 48 h, read-out: GI
UACC-62 = experiment: Growth inhibition of human UACC62 cells at 10 uM after 48 hrs by SRB assay relative to control; assay type: functional; conditions: UACC-62, 48 h, read-out: GI
SNB-75 = experiment: Growth inhibition of human SNB75 cells at 10 uM after 48 hrs by SRB assay relative to control; assay type: functional; conditions: SNB-75, 48 h, read-out: GI
OVCAR-3 = experiment: Growth inhibition of human OVCAR3 cells at 10 uM after 48 hrs by SRB assay relative to control; assay type: functional; conditions: OVCAR-3, 48 h, read-out: GI
NCI-H322M = experiment: Growth inhibition of human NCI-H322M cells at 10 uM after 48 hrs by SRB assay relative to control; assay type: functional; conditions: read-out: GI
U-251 = experiment: Growth inhibition of human U251 cells at 10 uM after 48 hrs by SRB assay relative to control; assay type: functional; conditions: U-251, 48 h, read-out: GI
[2] = target: T2, M-phase inducer phosphatase 2 (Homo sapiens, UniProt P30305); experiment: Inhibition of human CDC25B using OMFP as substrate after 15 mins by fluorescence assay
T2 sequence (P30305 whole entry): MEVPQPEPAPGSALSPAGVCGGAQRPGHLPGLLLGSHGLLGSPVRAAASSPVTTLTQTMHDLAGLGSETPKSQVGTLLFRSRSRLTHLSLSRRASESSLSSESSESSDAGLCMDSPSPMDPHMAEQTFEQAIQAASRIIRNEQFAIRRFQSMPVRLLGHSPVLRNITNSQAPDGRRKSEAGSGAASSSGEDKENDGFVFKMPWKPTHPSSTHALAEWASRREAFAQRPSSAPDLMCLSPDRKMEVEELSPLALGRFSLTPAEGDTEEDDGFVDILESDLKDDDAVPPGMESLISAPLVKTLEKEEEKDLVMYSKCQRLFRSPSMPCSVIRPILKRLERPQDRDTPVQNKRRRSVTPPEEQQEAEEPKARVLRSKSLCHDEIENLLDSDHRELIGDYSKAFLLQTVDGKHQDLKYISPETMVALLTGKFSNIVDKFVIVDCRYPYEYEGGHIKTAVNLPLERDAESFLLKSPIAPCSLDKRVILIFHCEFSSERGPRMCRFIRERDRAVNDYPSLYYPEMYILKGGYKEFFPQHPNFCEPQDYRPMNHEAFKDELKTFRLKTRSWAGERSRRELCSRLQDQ

K562 = experiment: Growth inhibition of human K562 cells at 10 uM after 48 hrs by SRB assay relative to control; assay type: functional; conditions: K562, 48 h, read-out: GI
Malme-3M = experiment: Growth inhibition of human MALME-3M cells at 10 uM after 48 hrs by SRB assay relative to control; assay type: functional; conditions: read-out: GI
PC-3 = experiment: Growth inhibition of human PC3 cells at 10 uM after 48 hrs by SRB assay relative to control; assay type: functional; conditions: PC-3, 48 h, read-out: GI
RXF 393 = experiment: Growth inhibition of human RXF393 cells at 10 uM after 48 hrs by SRB assay relative to control; assay type: functional

Structure (SMILES): COc1ccc(Cc2nnc(SCC(=O)Nc3ccc(Cl)cc3)n2Cc2ccccc2)cc1
- inhibition of growth at 10 µM (CCRF-CEM): 22.4%
- growth inhibition (GI) (HL-60): inactive
- inhibition of growth at 10 µM (SK-OV-3): 16.2%
- inhibition of growth at 10 µM (SK-MEL-5): 4.45%
- inhibition of growth at 10 µM (NCI-H226): 4.45%
- inhibition of growth at 10 µM (OVCAR-4): 11.8%
- inhibition of growth at 10 µM (LOX IMVI): 12.2%
- inhibition of growth at 10 µM (NCI-H522): 29.3%
- inhibition of growth at 10 µM (SK-MEL-2): 17.2%
- IC50 [1]: 14.1 µM
- inhibition of growth at 10 µM (A498): 16%
- inhibition of growth at 10 µM (MOLT-4): 36%
- growth inhibition (GI) (UACC-257): inactive
- inhibition of growth at 10 µM (Hs-578T): 2.82%
- inhibition of growth at 10 µM (SR): 25.7%
- inhibition of growth at 10 µM (SNB-19): 6.27%
- inhibition of growth at 10 µM (UACC-62): 38%
- inhibition of growth at 10 µM (SNB-75): 4%
- inhibition of growth at 10 µM (OVCAR-3): 3%
- inhibition of growth at 10 µM (NCI-H322M): 14.5%
- inhibition of growth at 10 µM (U-251): 5.5%
- IC50 [2]: 8.4 µM
- inhibition of growth at 10 µM (K562): 34.5%
- inhibition of growth at 10 µM (Malme-3M): 5.6%
- inhibition of growth at 10 µM (PC-3): 47.3%
- growth inhibition (GI) (RXF 393): inactive

Structure (SMILES): COc1ccc(Cc2nnc(SCC(=O)c3ccc(Cl)cc3)n2-c2ccccc2)cc1
- inhibition of growth at 10 µM (CCRF-CEM): 7.71%
- growth inhibition (GI) (HL-60): inactive
- inhibition of growth at 10 µM (SK-OV-3): 7.83%
- inhibition of growth at 10 µM (SK-MEL-5): 7%
- inhibition of growth at 10 µM (NCI-H226): 4%
- inhibition of growth at 10 µM (OVCAR-4): 22%
- inhibition of growth at 10 µM (LOX IMVI): 3.4%
- inhibition of growth at 10 µM (NCI-H522): 21%
- inhibition of growth at 10 µM (SK-MEL-2): 11.5%
- IC50 [1]: 30.7 µM
- inhibition of growth at 10 µM (A498): 24.5%
- inhibition of growth at 10 µM (MOLT-4): 24%
- growth inhibition (GI) (UACC-257): inactive
- inhibition of growth at 10 µM (Hs-578T): 3.43%
- inhibition of growth at 10 µM (SR): 24.1%
- inhibition of growth at 10 µM (SNB-19): 5%
- inhibition of growth at 10 µM (UACC-62): 13.7%
- inhibition of growth at 10 µM (SNB-75): 12.8%
- inhibition of growth at 10 µM (OVCAR-3): 4.64%
- inhibition of growth at 10 µM (NCI-H322M): 8.4%
- inhibition of growth at 10 µM (U-251): 10.1%
- IC50 [2]: 20.1 µM
- inhibition of growth at 10 µM (K562): 26.7%
- inhibition of growth at 10 µM (Malme-3M): 16.9%
- inhibition of growth at 10 µM (PC-3): 36.2%
- inhibition of growth at 10 µM (RXF 393; RXF 393, 48 h, read-out: GI): 2%
